Data as given in patent publication US20250197357A1, “PPARG INVERSE AGONISTS AND USES THEREOF” (Flare Therapeutics Inc., priority 2022, published 2025).

Legend:
[1] = target: T1, PPARG/RXRA LBD heterodimer (Homo sapiens, UniProt P37231); experiment: PPARγ-NCOR1 recruitment assay (TR-FRET); assay type: binding; conditions: NCOR1 ID2 peptide, 80 nM Rosiglitazone, 3 hours, read-out: PPARG - NCOR recruitment assay EC50
T1 construct: 2 nM WT PPARG LBD (e. coli expressed, His-TEV-Q203-Y477); fused on or other part: N-terminal His tag with TEV site on the PPARG LBD
Protocol: Compound potency (EC50) and maximal extent of NCOR1 recruitment to PPARG were assessed a TR-FRET binding assay measuring association of a biotinylated NCOR1 ID2 peptide (Biotin-[…]-amide) to PPARG/RXRA LBD heterodimer. Specifically, a 20 microliters of TR-FRET master mix consisting of 2 nM WT PPARG LBD (e. coli expressed, His-TEV-Q203-Y477; Uniprot ID P37231-2), 2 nM WT RXRA LBD or mutant S427F RXRA LBD (e. coli expressed, Flag-TEV-E228-T462; […]. Mixtures were incubated for 3 hours and read in an EnVision plate reader (Perkin Elmer) with Ex/Em 615/665. To determine the potency (EC50) and extent of NCOR1 recruitment, TR-FRET ratios were normalized to the average ratio of DMSO control wells (0%) and to the average maximum ratio for positive control compound (T0070907 (2-chloro-5-nitro-N-4-pyridinyl-benzamide); defined as 100%) in CDD Vault and analyzed using the Levenberg-Marquardt algorithm.
T1 sequence (O75376 2251-2273 limits assumed, one chain of several, further chain): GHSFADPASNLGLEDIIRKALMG

[2] = target: T2, PPARG/RXRA LBD heterodimer (Homo sapiens, UniProt P37231); experiment: PPARγ-MED1 blockade assay (TR-FRET); assay type: binding; conditions: MED1 LxxLL peptide, 80 nM Rosiglitazone, 3 hours
T2 construct: His-TEV-Q203-Y477; Uniprot ID P37231-2; made in house; host or cells: E. coli
T2 sequence (P37231 203-477 isoform P37231-2): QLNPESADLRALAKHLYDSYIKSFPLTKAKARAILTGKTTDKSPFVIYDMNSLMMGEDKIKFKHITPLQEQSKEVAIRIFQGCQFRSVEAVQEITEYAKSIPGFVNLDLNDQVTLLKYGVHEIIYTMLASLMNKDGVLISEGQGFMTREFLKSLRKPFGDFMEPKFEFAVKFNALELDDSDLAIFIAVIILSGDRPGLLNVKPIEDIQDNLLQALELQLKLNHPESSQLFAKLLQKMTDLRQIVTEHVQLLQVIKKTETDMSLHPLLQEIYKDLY
T2 sequence (P19793 228-462 partner limits assumed): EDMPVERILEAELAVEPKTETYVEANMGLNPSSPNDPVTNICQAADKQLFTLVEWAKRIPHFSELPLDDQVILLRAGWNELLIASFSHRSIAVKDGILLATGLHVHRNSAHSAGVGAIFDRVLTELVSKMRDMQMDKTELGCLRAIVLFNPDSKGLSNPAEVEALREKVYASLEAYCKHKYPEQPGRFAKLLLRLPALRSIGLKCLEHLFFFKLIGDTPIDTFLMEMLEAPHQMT
Protocol: Compound potency (IC50) and maximal extent of MED1 repulsion to PPARG were assessed a TR-FRET binding assay measuring association of a biotinylated MED1 LxxLL peptide (Biotin—[…]-amide) to PPARG/RXRA LBD heterodimer. Specifically, a 20 microliters of TR-FRET master mix consisting of 2 nM WT PPARG LBD (e. coli expressed, His-TEV-Q203-Y477; Uniprot ID P37231-2), 2 nM WT RXRA LBD (e. coli expressed, Flag-TEV-E228-T462; […]. Mixtures were incubated for 3 hours and read in an EnVision plate reader (Perkin Elmer) with Ex/Em 615/665. To determine the potency (IC50) and extent of MED1 repulsion, TR-FRET ratios were normalized to the average ratio of DMSO control wells (0%) and to the average minimum ratio for positive control compound (GW9662 (2-chloro-5-nitrobenzanilide); defined as 100%) in CDD Vault and analyzed using the Levenberg-Marquardt algorithm.

[3] = system: ANGPTL4, a PPARG target gene, in HT1197 (RXRA S427F mutation) cells; experiment: Bladder cancer pharmacodynamic assay (HT1197 cell assay, qPCR of PPARG target genes); assay type: cell-based; conditions: Homo sapiens; for inhibition at 0.1 µM: 100 nM compound, 24 hours, relative to DMSO control
Protocol: 5637 (PPARG amplified) and HT1197 (RXRA S427F mutation) cells were used for assessment of modulation of PPARG target genes using quantitative PCR. Cells were treated for 24 hours with PPARG inverse agonists prior to analysis of FABP4 (IDT, Cat: Hs.PT 58.20106818) and ANGPTL4 (IDT, Cat: Hs.PT 58.25480012) expression, with expression of the housekeeping gene TBP (IDT, Cat: Hs.PT 58v.39858774) used to normalize expression across samples. Quantitative PCR was performed using an ABI QuantStudio 7 Flex Reaction system. Data were analyzed and reported relative to DMSO control using the comparative Ct method (ΔΔCt).

| Structure (SMILES) | EC50 [1] [µM] | EC50 [2] [µM] | EC50 ([3]; 24 hours treatment, qPCR) [µM] | inhibition at 0.1 µM [3] [%] |
| --- | --- | --- | --- | --- |
| CS(=O)(=O)c1ccc(C#N)cc1C(=O)Nc1cc(F)c(-c2ccc(C(F)F)nc2)c(F)c1 [Example 13, 5-cyano-N-(4-(6-(difluoromethyl)pyridin-3-yl)-3,5-difluorophenyl)-2-(methylsulfonyl) benzamide] | 0.1 to 1 | 0.1 to 1 | 0.0029 | 80 |
| CS(=O)(=O)c1ccc(C#N)cc1C(=O)Nc1ccc2cnccc2c1 [Example 14, 5-cyano-N-(isoquinolin-6-yl)-2-(methylsulfonyl) benzamide] | 1 to 10 | 1 to 10 |  | 35 |
| N#Cc1ccc(SC(F)(F)F)c(C(=O)Nc2cc(Cl)cc(Cl)c2)c1 [Example 15, 5-cyano-N-(3,5-dichlorophenyl)-2-((trifluorometh-yl)thio)benzamide] | 0.01 to 0.1 | 0.01 to 0.1 |  | 46 |
| CS(=O)(=O)c1ccc(C#N)cc1C(=O)Nc1ccc(F)c(C#N)c1 [Example 17, 5-cyano-N-(3-cyano-4-fluorophenyl)-2-(methylsulfonyl) benzamide] | 1 to 10 | 1 to 10 |  | 43 |
| CC(=O)N1CCN(c2ccc(NC(=O)c3cc(C#N)ccc3S(C)(=O)=O)cn2)CC1 [Example 18, N-(6-(4-acetylpiperazin-1-yl)pyridin-3-yl)-5-cyano-2-(methylsulfonyl) benzamide] | > 10 | > 10 |  | 13 |
| Cc1cc(NC(=O)c2cc(C#N)ccc2S(C)(=O)=O)cc(C)n1 [Example 19, 5-cyano-N-(2,6-dimethylpyridin-4-yl)-2-(methylsulfonyl) benzamide] | > 10 | > 10 |  | 20 |
| CS(=O)(=O)c1ccc(C#N)cc1C(=O)Nc1ccn2nccc2c1 [Example 20, 5-cyano-2-(methylsulfonyl)-N-(pyrazolo[1,5-a]pyridin-5-yl)benzamide] | > 10 | > 10 |  | 0 |
| CS(=O)(=O)c1ccc(C#N)cc1C(=O)Nc1ccc(C#N)c(F)c1 [Example 21, 5-cyano-N-(4-cyano-3-fluorophenyl)-2-(methylsulfonyl) benzamide] | 1 to 10 | 1 to 10 |  | 79 |
| CS(=O)(=O)c1ccc(C#N)cc1C(=O)Nc1ccc2ccncc2c1 [Example 22, 5-cyano-N-(isoquinolin-7-yl)-2-(methylsulfonyl) benzamide] | > 10 | > 10 |  | 0 |
| CS(=O)(=O)c1ccc(C#N)cc1C(=O)Nc1cc(F)c(-c2ccc3c(c2)C(=O)NC3)c(F)c1 [Example 23, 5-cyano-N-(3,5-difluoro-4-(3-oxoisoindolin-5-yl)phenyl)-2-(methylsulfonyl) benzamide] | 0.01 to 0.1 | 0.01 to 0.1 |  | 19 |
| N#Cc1ccc(SC(F)(F)F)c(C(=O)Nc2ccnc(C(F)(F)F)c2)c1 [Example 24, 5-cyano-N-(2-(trifluorometh-yl)pyridin-4-yl)-2-((trifluorometh-yl)thio)benzamide] | 1 to 10 | 1 to 10 |  | 49 |
| CS(=O)(=O)c1ccc(C#N)cc1C(=O)Nc1cc(F)cc(C#N)c1 [Example 25, 5-cyano-N-(3-cyano-5-fluorophenyl)-2-(methylsulfonyl) benzamide] | 0.1 to 1 | 0.1 to 1 |  | 77 |
| N#Cc1ccc(SC(F)(F)F)c(C(=O)Nc2cc(F)cc(Oc3ccc(Cl)cc3)c2)c1 [Example 26, N-(3-(4-chlorophenoxy)-5-fluorophenyl)-5-cyano-2-((trifluorometh-yl)thio)benzamide] | 0.1 to 1 | 0.1 to 1 |  | -160 |

More lines, main results first:

| EC50 [1] [µM] | EC50 [2] [µM] | EC50 ([3]; 24 hours treatment, qPCR) [µM] | Structure (SMILES) | inhibition at 0.1 µM [3] [%] |
| --- | --- | --- | --- | --- |
| 0.1 to 1 | 0.1 to 1 |  | CN1Cc2ccc(-c3c(F)cc(NC(=O)c4cc(C#N)ccc4SC(F)(F)F)cc3F)cc2C1=O [Example 27, 5-cyano-N-(3,5-difluoro-4-(2-methyl-3-oxoisoindolin-5-yl)phenyl)-2-((trifluorometh-yl)thio)benzamide] | 79 |
| 0.1 to 1 | 0.1 to 1 |  | Cn1cc(-c2c(F)cc(NC(=O)c3cc(C#N)ccc3S(C)(=O)=O)cc2F)cn1 [Example 28, 5-cyano-N-(3,5-difluoro-4-(1-methyl-1H-pyrazol-4-yl)phenyl)-2-(methylsulfonyl) benzamide] | 72 |
| 0.1 to 1 | 0.1 to 1 |  | Cn1cc(-c2c(F)cc(NC(=O)c3cc(C#N)ccc3SC(F)(F)F)cc2F)cn1 [Example 29, 5-cyano-N-(3,5-difluoro-4-(1-methyl-1H-pyrazol-4-yl)phenyl)-2-((trifluorometh-yl)thio)benzamide] | 65 |
| 1 to 10 | 1 to 10 |  | Cc1cc(NC(=O)c2cc(C#N)ccc2S(C)(=O)=O)cnc1C(F)(F)F [Example 30, 5-cyano-N-(5-methyl-6-(trifluorometh-yl)pyridin-3-yl)-2-(methylsulfonyl) benzamide] | 42 |
| 0.01 to 0.1 | 0.01 to 0.1 |  | CS(=O)(=O)c1cnc(C#N)cc1C(=O)Nc1cc(F)cc(F)c1 [Example 31, 2-cyano-N-(3,5-difluorophenyl)-5-(methylsulfonyl)isonicotinamide] | 72 |
| 0.1 to 1 | 0.1 to 1 |  | CS(=O)(=O)c1cnc(C#N)cc1C(=O)Nc1ccnc(C(F)(F)F)c1 [Example 32, 2-cyano-5-(methylsulfonyl)-N-(2-(trifluoromethyl)py-ridin-4-yl)isonicotinamide] | 80 |
| 1 to 10 | 1 to 10 |  | N#Cc1ccc(S(=O)(=O)CC(F)(F)F)c(C(=O)Nc2cc(F)cc(F)c2)c1 [Example 33, 5-cyano-N-(3,5-difluorophenyl)-2-((2,2,2-trifluoroethyl)sulfonyl)benzamide] | 19 |
| 0.1 to 1 | 0.1 to 1 |  | N#Cc1cc(C(=O)Nc2cc(F)cc(F)c2)c(S(=O)(=O)CC(F)(F)F)cn1 [Example 34, 2-cyano-N-(3,5-difluorophenyl)-5-((2,2,2-trifluoroethyl)sulfonyl) isonicotinamide] | 59 |
